Source: patent EP0750618B1, “OXAZOLIDINONE DERIVATIVES AND PHARMACEUTICAL COMPOSITIONS CONTAINING THEM” (priority 1994, dated 1995)
Converted amounts (≈) assume the structure as drawn. Where two headings read alike, the source gives them in different places.

Assays:
Assay in all cases: MIC test, standard agar dilution method
[1] = system: Staphylococcus epidermidis (UC 12084); format: cell-based; conditions: UC12084, incubated overnight at 35°C, read-out: Minimum Inhibitory Concentrations (MIC) S. enidermidis
Staphylococcus aureus = system: Staphylococcus aureus
[2] = system: Streptococcus pyogenes (UC 152); conditions: UC152, read-out: Minimum Inhibitory Concentrations (MIC) S. pyogenes
[3] = UC9213, read-out: Minimum Inhibitory Concentrations (MIC) S. aureus

Compound	MIC [1] [µg/mL]	MIC (Staphylococcus aureus; [3]) [µg/mL]	MIC [2] [µg/mL]	MIC (Staphylococcus aureus; UC9218, read-out: Minimum Inhibitory Concentrations (MIC) S. aureus) [µg/mL]
CC(=O)NC[C@H]1CN(c2ccc(N3CCC(=NN4CCOCC4)CC3)c(F)c2)C(=O)O1 [compound 40, (S)-N-(3-{3-fluoro-4-[4-(morpholin-4-ylimino)-piperidin-1-yl]-phenyl}-2-oxo-oxazolidin-5-ylmethyl)-acetamide]	0.5 (≈ 1.15 µM)	4 (≈ 9.23 µM)	2 (≈ 4.61 µM)	–
CC(=O)NC[C@H]1CN(c2ccc(N3CCC(C(C)=O)CC3)c(F)c2)C(=O)O1 [compound 36, (S)-N-{3-[4-(4-acetyl-piperidin-1-yl)-3-fluoro-phenyl]-2-oxo-oxazolidin-5-ylmethyl}-acetamide]	1 (≈ 2.65 µM)	4 (≈ 10.6 µM)	2 (≈ 5.3 µM)	–
COCCNC1CCN(c2ccc(N3C[C@H](CNC(C)=O)OC3=O)cc2F)CC1 [compound 64, (S)-N-(3-{3-fluoro-4-[4-(2-methoxy-ethylamino)-piperidin-1-yl]-phenyl}-2-oxo-oxazolidin-5-ylmethyl)-acetamide]	2 (≈ 4.9 µM)	32 (≈ 78.3 µM)	1 (≈ 2.45 µM)	–
COC(=O)CON=C1CCN(c2ccc(N3C[C@H](CNC(C)=O)OC3=O)cc2F)CC1 [compound 47, (S)-(1-{4-[5-(acetylamino-methyl)-2-oxo-oxazolidin-3-yl]-2-fluoro-phenyl}-piperidin-4-ylideneaminooxy)-acetic acid methyl ester]	1 (≈ 2.29 µM)	8 (≈ 18.3 µM)	2 (≈ 4.58 µM)	–
CC(=O)NC[C@H]1CN(c2ccc(N3CCC4(CC3)OCC(CO)O4)c(F)c2)C(=O)O1 (stereo partly drawn) [Compound No. 52, (S)-N-{3-[3-fluoro-4-(2-hydroxymethyl-1,4-dioxa-8-aza-spiro[4.5]dec-8-yl)-phenyl]-2-oxo-oxazolidin-5-ylmethyl}-acetamide]	2 (≈ 4.72 µM)	16 (≈ 37.8 µM)	4 (≈ 9.45 µM)	–
COCON=C1CCN(c2ccc(N3C[C@H](CNC(C)=O)OC3=O)cc2F)CC1 [compound 60, (S)-N-{3-[3-fluoro-4-(4-methoxymethoxyimino-piperidin-1-yl)-phenyl]-2-oxo-oxazolidin-5-ylmethyl}-acetamide]	2 (≈ 4.9 µM)	8 (≈ 19.6 µM)	2 (≈ 4.9 µM)	–
CC(=O)NC[C@H]1CN(c2ccc(N3CCC(C4(C)OCCO4)CC3)c(F)c2)C(=O)O1 [Compound No. 35, (S)-N-(3-{3-fluoro-4-[4-(2-methyl-[1,3]dioxolan-2-yl)-piperidin-1-yl]-phenyl}-2-oxo-oxazolidin-5-ylmethyl)-acetamide]	2 (≈ 4.75 µM)	8 (≈ 19 µM)	2 (≈ 4.75 µM)	–
CC(=O)NC[C@H]1CN(c2ccc(N3CCC(N(C)C)CC3)c(F)c2)C(=O)O1 [Compound No. 67, (S)-N-{3-[4-(4-dimethylamino-piperidin-1-yl)-3-fluoro-phenyl]-2-oxo-oxazolidin-5-ylmethyl}-acetamide]	2 (≈ 5.28 µM)	32 (≈ 84.6 µM)	1 (≈ 2.64 µM)	–
CC(=O)NC[C@H]1CN(c2ccc(N3CCC(CC4(C)OCCO4)CC3)c(F)c2)C(=O)O1 [Compound No. 32, (S)-N-(3-{3-fluoro-4-[4-(2-methyl-[1,3]dioxolan-2-ylmethyl)-piperidin-1-yl]-phenyl}-2-oxo-oxazolidin-5-ylmethyl)-acetamide]	4 (≈ 9.18 µM)	16 (≈ 36.7 µM)	4 (≈ 9.18 µM)	–
CN[C@H](CC(C)C)C(=O)N[C@H]1C(=O)N[C@@H](CC(N)=O)C(=O)N[C@H]2C(=O)N[C@H]3C(=O)N[C@H](C(=O)N[C@H](C(=O)O)c4cc(O)cc(O)c4-c4cc3ccc4O)[C@H](O)c3ccc(c(Cl)c3)Oc3cc2cc(c3O[C@@H]2O[C@H](CO)[C@@H](O)[C@H](O)[C@H]2O[C@H]2C[C@](C)(N)[C@H](O)[C@H](C)O2)Oc2ccc(cc2Cl)[C@H]1O [Vancomycin, reference compound]	2 (≈ 1.38 µM)	1 (≈ 0.69 µM)	0.5 (≈ 0.345 µM)	–
CC(=O)NC[C@H]1CN(c2ccc(N3CCC(Nc4nccs4)CC3)c(F)c2)C(=O)O1 [Compound No. 63, (S)-N-(3-{3-fluoro-4-[4-(thiazol-2-ylamino)-piperidin-1-yl]-phenyl}-2-oxo-oxazolidin-5-ylmethyl)-acetamide]	2 (≈ 4.61 µM)	16 (≈ 36.9 µM)	2 (≈ 4.61 µM)	–
CC(=O)NC[C@H]1CN(c2ccc(N3CCC(=NNCCO)CC3)c(F)c2)C(=O)O1 [compound 41, (S)-N-[3-(3-fluoro-4-{4-[(2-hydroxy-ethyl)-hydrazono]-piperidin-1-yl}-phenyl)-2-oxo-oxazolidin-5-ylmethyl]-acetamide]	0.5 (≈ 1.23 µM)	4 (≈ 9.82 µM)	1 (≈ 2.45 µM)	–
CONC1CCN(c2ccc(N3C[C@H](CNC(C)=O)OC3=O)cc2F)CC1 [Compound No. 59, (S)-N-{3-[3-fluoro-4-(4-methoxyamino-piperidin-1-yl)-phenyl]-2-oxo-oxazolidin-5-ylmethyl}-acetamide]	2 (≈ 5.26 µM)	4 (≈ 10.5 µM)	4 (≈ 10.5 µM)	–
CC(=O)NC[C@H]1CN(c2ccc(N3CCC(NC(=O)CO)CC3)c(F)c2)C(=O)O1 [compound 10, (S)-N-(1-{4-[5-(acetylamino-methyl)-2-oxo-oxazolidin-3-yl]-2-fluoro-phenyl}-piperidin-4-yl)-2-hydroxy-acetamide]	2 (≈ 4.9 µM)	16 (≈ 39.2 µM)	2 (≈ 4.9 µM)	–
CC(=O)NC[C@H]1CN(c2ccc(N3CCC(=NNC(N)=O)CC3)c(F)c2)C(=O)O1 [compound 39, (S)-N-{3-[3-fluoro-4-(4-semicarbazono-piperidin-1-yl)-phenyl]-2-oxo-oxazolidin-5-ylmethyl}-acetamide]	0.5 (≈ 1.23 µM)	2 (≈ 4.92 µM)	2 (≈ 4.92 µM)	–
CC(=O)NC[C@H]1CN(c2ccc(N3CCC(NC(C)=O)CC3)c(F)c2)C(=O)O1 [compound 9, (S)-N-{3-[4-(4-acetylamino-piperidin-1-yl)-3-fluoro-phenyl]-2-oxo-oxazolidin-5-ylmethyl}-acetamide]	2 (≈ 5.1 µM)	16 (≈ 40.8 µM)	4 (≈ 10.2 µM)	–
CC(=O)CC1CCN(c2ccc(N3C[C@H](CNC(C)=O)OC3=O)cc2F)CC1 [compound 33, (S)-N-(3-{3-fluoro-4-[4-(2-oxo-propyl)-piperidin-1-yl]-phenyl}-2-oxo-oxazolidin-5-ylmethyl)-acetamide]	2 (≈ 5.11 µM)	8 (≈ 20.4 µM)	2 (≈ 5.11 µM)	–
COCOCCON=C1CCN(c2ccc(N3C[C@H](CNC(C)=O)OC3=O)cc2F)CC1 [compound 53, (S)-N-(3-{3-fluoro-4-[4-(2-methoxymethoxy-ethoxyimino)-piperidin-1-yl]-phenyl}-2-oxo-oxazolidin-5-ylmethyl)-acetamide]	2 (≈ 4.42 µM)	16 (≈ 35.4 µM)	4 (≈ 8.84 µM)	–
COC(=O)ON=C1CCN(c2ccc(N3C[C@H](CNC(C)=O)OC3=O)cc2F)CC1 [compound 38, (S)-N-{3-[3-fluoro-4-(4-methoxycarbonyloxyimino-piperidin-1-yl)-phenyl]-2-oxo-oxazolidin-5-ylmethyl}-acetamide]	0.5 (≈ 1.18 µM)	2 (≈ 4.73 µM)	1 (≈ 2.37 µM)	–
CC(=O)NC[C@H]1CN(c2ccc(N3CCC(=NOCC(O)CO)CC3)c(F)c2)C(=O)O1 (stereo partly drawn) [Compound No. 62, (S)-N-(3-{4-[4-(2,3-dihydroxy-propoxyimino)-piperidin-1-yl]-3-fluorophenyl}-2-oxo-oxazolidin-5-ylmethyl)-acetamide]	1 (≈ 2.28 µM)	8 (≈ 18.2 µM)	2 (≈ 4.56 µM)	–
CC(=O)NC[C@H]1CN(c2ccc(N3CCC(=NOCCO)CC3)c(F)c2)C(=O)O1 [compound 48, (S)-N-(3-{3-fluoro-4-[4-(2-hydroxy-ethoxyimino)-piperidin-1-yl]-phenyl}-2-oxo-oxazolidin-5-ylmethyl)-acetamide]	1 (≈ 2.45 µM)	8 (≈ 19.6 µM)	2 (≈ 4.9 µM)	–
CC(=O)NC[C@H]1CN(c2ccc(N3CCC(CO)CC3)c(F)c2)C(=O)O1 [Compound No. 4, (S)-N-{3-[3-fluoro-4-(4-hydroxymethyl-piperidin-1-yl)-phenyl]-2-oxo-oxazolidin-5-ylmethyl}-acetamide]	2 (≈ 5.47 µM)	8 (≈ 21.9 µM)	2 (≈ 5.47 µM)	–
CC(=O)NC[C@H]1CN(c2ccc(N3CCC(N)CC3)c(F)c2)C(=O)O1 [Compound No. 6, (S)-N-{3-[4-(4-amino-piperidin-1-yl)-3-fluoro-phenyl]-2-oxo-oxazolidin-5-ylmethyl}-acetamide]	32 (≈ 91.3 µM)	> 64	1 (≈ 2.85 µM)	–
CC(=O)NC[C@H]1CN(c2ccc(N3CCCCC3)c(F)c2)C(=O)O1 [Compound No. 2, (S)-N-[3-(3-fluoro-4-piperidin-1-yl-phenyl)-2-oxo-oxazolidin-5-ylmethyl]-acetamide]	1 (≈ 2.98 µM)	–	4 (≈ 11.9 µM)	8 (≈ 23.9 µM)
CON=C1CCN(c2ccc(N3C[C@H](CNC(C)=O)OC3=O)cc2F)CC1 [Compound No. 29, (S)-N-{3-[3-fluoro-4-(4-methoxyimino-piperidin-1-yl)-phenyl]-2-oxo-oxazolidin-5-ylmethyl}-acetamide]	1 (≈ 2.64 µM)	4 (≈ 10.6 µM)	4 (≈ 10.6 µM)	–
COCOC1CCN(c2ccc(N3C[C@H](CNC(C)=O)OC3=O)cc2F)CC1 [compound 27, (S)-N-{3-[3-fluoro-4-(4-methoxymethoxy-piperidin-1-yl)-phenyl]-2-oxo-oxazolidin-5-ylmethyl}-acetamide]	2 (≈ 5.06 µM)	8 (≈ 20.2 µM)	8 (≈ 20.2 µM)	–
COCOCC1COC2(CCN(c3ccc(N4C[C@H](CNC(C)=O)OC4=O)cc3F)CC2)O1 (stereo partly drawn) [compound 57, (S)-N-(3-{3-fluoro-4-[2-(methoxymethoxy-methyl)-1,4-dioxa-8-aza-spiro[4.5]dec-8-yl]-phenyl}-2-oxo-oxazolidin-5-ylmethyl)-acetamide]	4 (≈ 8.56 µM)	16 (≈ 34.2 µM)	8 (≈ 17.1 µM)	–
CC(=O)NC[C@H]1CN(c2ccc(N3CCC(=Nn4cnnc4)CC3)c(F)c2)C(=O)O1 [compound 51, (S)-N-(3-{3-fluoro-4-[4-([1,2,4]triazol-4-ylimino)-piperidin-1-yl]-phenyl}-2-oxo-oxazolidin-5-ylmethyl)-acetamide]	1 (≈ 2.41 µM)	4 (≈ 9.63 µM)	2 (≈ 4.81 µM)	–
